Paper PMC9654820, “Immunosuppressive Sesquiterpene Pyridine Alkaloids from Tripterygium wilfordii Hook. f” (Molecules, 2022)
Entries after “also recorded” stand apart in the source; their conditions may differ.

Experiments:
Format in all cases: cell-based
NF-κB pathway = experiment: NF-κB inhibitory (immunosuppressive) activity, luciferase reporter assay in LPS-induced HEK293/NF-κB-Luc cells; conditions: for inhibition at 100 µM / IC50: Homo sapiens; for inhibition at 100 µM: HEK293, 24 h, read-out: NF-κB Inhibitory Rates (%) (N = 3); for IC50: read-out: IC50 NF-κB inhibition
Procedure: The NF-κB inhibitory activities were measured using the HEK293/NF-κB-Luc cells, which were generated as described previously. Briefly, HEK293 cells were co-transfected with a luciferase reporter plasmid, which contained an NF-κB binding site and pcDNA3.1, using Lipofectamine 2000 at a concentration of 10:1. The HEK293/ NF-κB-Luc cells were plated in 48-well plates and cultured in DMEM supplemented with 10% fetal bovine serum (FBS) for 16 h. Then, the cells were treated with the tested compounds, followed by stimulation with 1 μg/mL of LPS for 24 h. The cells were rinsed twice with phosphate-buffered saline (PBS, pH 7.4) and lysed with passive lysis buffer. Then, the inhibitory effects on NF-κB were analyzed using the luciferase assay system according to the manufacturer’s instructions. All the experiments were performed in triplicate.

[1] = Cell viability assay (CCK-8); conditions: human; HEK293 cells, CCK-8, compound at 100 μM, 48 h incubation; read-out: Cell Viability (%) (N = 3)
Procedure: (§1) The viability of HEK293 cells was determined by a CCK-8 assay according to the established protocol. Briefly, 5 × 10^3 cells/well HEK293 cells were cultured in 96-well plates at 37 °C under an atmosphere of 5% CO2 for 24 h and then treated with the tested compounds. After 48 h of incubation, CCK-8 reagent (20 μL) was added into each well and continuously incubated for 2 h at 37 °C. Absorbance at a wavelength of 450 nm was measured by a microplate reader, which was further used to calculate the cell viability. All the experiments were performed in triplicate.

HEK293 cells = experiment: Cell viability assay (CCK-8); conditions: for influence on the cell viability: CCK-8, at a concentration of 100 μM
Procedure: as §1

[2] = HEK293/NF-κB-Luc cells induced by LPS (1 μg/mL, 24 h), compound at 100 μM
[3] = HEK293/NF-κB-Luc cells induced by LPS

Compound	inhibition at 100 µM (NF-κB pathway; [2]) [%]	viability at 48 h, 100 µM [1] [%]	IC50 (NF-κB pathway; [3]) [µM]	influence on the cell viability (HEK293 cells)	NF-κB Inhibitory Rates (%) (N = 3) (NF-κB pathway; positive control, HEK293/NF-κB-Luc cells induced by LPS, concentration not given)	NF-κB Inhibitory Rates (%) (N = 3) (NF-κB pathway; [2])	Cell Viability (%) (N = 3) (HEK293 cells; HEK293 cells, CCK-8, compound at 100 μM, 48 h incubation)
CC(=O)OCC12[C@H](OC(C)=O)[C@H](OC(C)=O)[C@@H]3[C@@H](O)[C@@]14O[C@@]3(C)COC(=O)c1cccnc1CCC(C)(O)C(=O)O[C@@H]([C@H](OC(=O)c1ccoc1)[C@@H]2OC(C)=O)[C@]4(C)O (stereo partly drawn) [Compound 4, 2β-furanoyloxy-1β,7β,8β,11-tetraacetoxy-4α,5α-dihydroxy-3α,15-[2′-methyl-2′-hydroxy-4′-(3′′-carboxy-2′′ -pyridyl)butanoic acid] dicarbolactone dihydro-β-agarofuran]	7.27 ± 2.28	101 ± 3.58	–	–	–	–	–
CC(=O)OCC12[C@H](OC(C)=O)[C@H](OC(C)=O)[C@@H]3[C@@H](O)[C@@]14O[C@@]3(C)COC(=O)c1cccnc1CCC(C)(O)C(=O)O[C@@H]([C@H](OC(=O)c1ccccc1)[C@@H]2OC(C)=O)[C@]4(C)O (stereo partly drawn) [Compound 5, 2β-benzoyloxy-1β,7β,8β,11-tetraacetoxy-4α,5α-dihydroxy-3α,15-[2′-methyl-2′-hydroxy-4′-(3′′-carboxy-2′′-pyridyl)butanoic acid] dicarbolactone dihydro-β-agarofuran]	> 50	93.8 ± 2.2	8.75	no influence on the cell viability; also recorded: no effects on the cell viability	–	–	–
CC(=O)OCC12C(OC(C)=O)C(=O)C3C(OC(C)=O)C14OC3(C)COC(=O)c1cccnc1CCC(C)(OC(=O)c1ccoc1)C(=O)OC(C(OC(C)=O)C2OC(C)=O)C4(C)O (stereo not drawn) [Compound 9, 1β,2β,5α,8β,11-pentaacetoxy-4α-droxy-7-oxo-3α,15-[2′-methyl-2′-(3-furoyloxy)-4′-(3′′-carboxy-2′′-pyridyl)butanoic acid] dicarbolactone dihydro-β-agarofuran]	37.4 ± 1.99	99.5 ± 5.71	–	–	–	–	–
CC(=O)OCC12[C@H](OC(C)=O)C(=O)[C@@H]3[C@@H](OC(C)=O)[C@@]14O[C@@]3(C)COC(=O)c1cccnc1CCC(C)(OC(=O)c1ccccc1)C(=O)O[C@@H]([C@H](OC(C)=O)[C@@H]2OC(C)=O)[C@]4(C)O (stereo partly drawn) [Compound 10, 1β,2β,5α,8β,11-pentaacetoxy-4α-droxy-7-oxo-3α,15-[2′-methyl-2′-(3-benzoyloxy)-4′-(3′′-carboxy-2′′-pyridyl)butanoic acid] dicarbolactone dihydro-β-agarofuran]	21.7 ± 4.42	102.8 ± 0.89	–	–	–	–	–
CC(=O)OC[C@]12[C@H](OC(C)=O)[C@H](OC(C)=O)[C@@H]3[C@@H](OC(C)=O)[C@@]14O[C@@]3(C)COC(=O)c1cccnc1CCC(C)(O)C(=O)O[C@@H]([C@H](O)[C@@H]2OC(C)=O)[C@@]4(C)O (stereo partly drawn) [Compound 11, tripfordine A]	> 50	102 ± 3.66	0.74	no influence on the cell viability; also recorded: no effects on the cell viability	–	–	–
CC(=O)OCC12[C@H](OC(C)=O)[C@H](OC(C)=O)[C@@H]3[C@@H](OC(C)=O)[C@@]14O[C@@]3(C)COC(=O)c1cccnc1CCC(C)C(=O)O[C@@H]([C@H](O)[C@@H]2OC(C)=O)[C@]4(C)O (stereo partly drawn) [Compound 12, wilforjine]	23 ± 3.43	93.5 ± 2.76	–	–	–	–	–
CC(=O)OCC12[C@H](OC(C)=O)C(=O)[C@@H]3[C@@H](OC(C)=O)[C@@]14O[C@@]3(C)COC(=O)c1cccnc1CCC(C)C(=O)O[C@@H]([C@H](OC(C)=O)[C@@H]2OC(C)=O)[C@]4(C)O (stereo partly drawn) [Compound 13, evonimine]	26.5 ± 5.99	100 ± 6.4	–	–	–	–	–
CC(=O)OCC12[C@H](OC(C)=O)[C@H](OC(C)=O)[C@@H]3[C@@H](OC(C)=O)[C@@]14O[C@@]3(C)COC(=O)c1cccnc1CCC(C)(OC(=O)c1ccccc1)C(=O)O[C@@H]([C@H](OC(C)=O)[C@@H]2OC(C)=O)[C@]4(C)O (stereo partly drawn) [Compound 15, wilfornine A]	8.73 ± 2.07	110 ± 5.83	–	–	–	–	–
CC(=O)OC[C@]12[C@H](OC(C)=O)[C@H](OC(C)=O)[C@@H]3[C@@H](OC(C)=O)[C@@]14O[C@@]3(C)COC(=O)c1cccnc1CCC(C)C(=O)O[C@@H]([C@H](OC(=O)c1ccccc1)[C@@H]2OC(C)=O)[C@]4(C)O (stereo partly drawn) [Compound 16, wilforine]	> 50	103 ± 2.21	15.7	no influence on the cell viability; also recorded: no effects on the cell viability	–	–	–
Cc1ccc(NCCCc2ccccc2)c(N)c1 [JSH23, reference compound]	–	–	–	–	74.56 ± 1.83	–	–
wilfortrine [Compound 14]	–	–	–	–	–	40.20 ± 3.92	93.76 ± 1.82
